Source: ChEMBL document CHEMBL2321799 (J Med Chem, 2013)

How the values were obtained:
Ephrin type-A receptor 2 [1] = target: T1, Ephrin type-A receptor 2 (Homo sapiens, UniProt P29317); assay: Inhibition of ephrin-A1-Fc binding to EphA2-Fc receptor (unknown origin) after 1 hr by ELISA
PC-3 = assay: Cytotoxicity against human PC3 cells assessed as LDH release at 25 to 100 uM after 2 hrs by ELISA; format: cell-based; conditions: pc-3, 2 h
Ephrin type-B receptor 4 = target: T2, Ephrin type-B receptor 4 (Homo sapiens, UniProt P54760); assay: Displacement of ephrin-B1-Fc from EphB4 receptor Fc ectodomain (unknown origin) after 1 hr by ELISA
T2 sequence (P54760 whole entry): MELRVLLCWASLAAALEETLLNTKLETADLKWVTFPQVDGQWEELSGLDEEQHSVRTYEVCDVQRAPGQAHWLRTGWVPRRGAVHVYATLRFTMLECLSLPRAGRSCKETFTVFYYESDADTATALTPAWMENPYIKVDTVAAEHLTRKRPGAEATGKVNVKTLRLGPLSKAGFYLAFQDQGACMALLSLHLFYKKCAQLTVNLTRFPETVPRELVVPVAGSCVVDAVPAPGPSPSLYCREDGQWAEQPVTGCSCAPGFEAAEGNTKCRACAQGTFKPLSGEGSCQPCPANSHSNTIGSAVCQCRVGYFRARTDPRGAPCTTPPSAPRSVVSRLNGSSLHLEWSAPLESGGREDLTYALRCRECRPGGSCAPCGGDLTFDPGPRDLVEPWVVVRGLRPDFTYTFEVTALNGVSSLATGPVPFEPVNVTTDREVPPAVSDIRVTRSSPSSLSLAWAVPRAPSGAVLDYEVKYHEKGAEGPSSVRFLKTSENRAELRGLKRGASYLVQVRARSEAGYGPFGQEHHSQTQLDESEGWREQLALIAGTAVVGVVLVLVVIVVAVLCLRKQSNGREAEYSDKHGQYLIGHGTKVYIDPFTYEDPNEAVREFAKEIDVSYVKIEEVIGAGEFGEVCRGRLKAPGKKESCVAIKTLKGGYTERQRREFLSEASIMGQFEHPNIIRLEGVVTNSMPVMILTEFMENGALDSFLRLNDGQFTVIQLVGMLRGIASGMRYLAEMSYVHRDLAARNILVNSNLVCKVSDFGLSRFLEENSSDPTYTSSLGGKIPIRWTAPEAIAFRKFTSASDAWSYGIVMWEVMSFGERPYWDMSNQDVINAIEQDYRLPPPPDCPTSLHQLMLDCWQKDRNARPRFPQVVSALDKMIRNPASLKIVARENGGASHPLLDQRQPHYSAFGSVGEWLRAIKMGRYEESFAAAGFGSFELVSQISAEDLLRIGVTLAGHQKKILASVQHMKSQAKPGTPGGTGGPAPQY

Ephrin type-B receptor 6 = target: T3, Ephrin type-B receptor 6 (Homo sapiens, UniProt O15197); assay: Displacement of ephrin-B1-Fc from EphB6 receptor Fc ectodomain (unknown origin) after 1 hr by ELISA
T3 sequence (O15197 whole entry): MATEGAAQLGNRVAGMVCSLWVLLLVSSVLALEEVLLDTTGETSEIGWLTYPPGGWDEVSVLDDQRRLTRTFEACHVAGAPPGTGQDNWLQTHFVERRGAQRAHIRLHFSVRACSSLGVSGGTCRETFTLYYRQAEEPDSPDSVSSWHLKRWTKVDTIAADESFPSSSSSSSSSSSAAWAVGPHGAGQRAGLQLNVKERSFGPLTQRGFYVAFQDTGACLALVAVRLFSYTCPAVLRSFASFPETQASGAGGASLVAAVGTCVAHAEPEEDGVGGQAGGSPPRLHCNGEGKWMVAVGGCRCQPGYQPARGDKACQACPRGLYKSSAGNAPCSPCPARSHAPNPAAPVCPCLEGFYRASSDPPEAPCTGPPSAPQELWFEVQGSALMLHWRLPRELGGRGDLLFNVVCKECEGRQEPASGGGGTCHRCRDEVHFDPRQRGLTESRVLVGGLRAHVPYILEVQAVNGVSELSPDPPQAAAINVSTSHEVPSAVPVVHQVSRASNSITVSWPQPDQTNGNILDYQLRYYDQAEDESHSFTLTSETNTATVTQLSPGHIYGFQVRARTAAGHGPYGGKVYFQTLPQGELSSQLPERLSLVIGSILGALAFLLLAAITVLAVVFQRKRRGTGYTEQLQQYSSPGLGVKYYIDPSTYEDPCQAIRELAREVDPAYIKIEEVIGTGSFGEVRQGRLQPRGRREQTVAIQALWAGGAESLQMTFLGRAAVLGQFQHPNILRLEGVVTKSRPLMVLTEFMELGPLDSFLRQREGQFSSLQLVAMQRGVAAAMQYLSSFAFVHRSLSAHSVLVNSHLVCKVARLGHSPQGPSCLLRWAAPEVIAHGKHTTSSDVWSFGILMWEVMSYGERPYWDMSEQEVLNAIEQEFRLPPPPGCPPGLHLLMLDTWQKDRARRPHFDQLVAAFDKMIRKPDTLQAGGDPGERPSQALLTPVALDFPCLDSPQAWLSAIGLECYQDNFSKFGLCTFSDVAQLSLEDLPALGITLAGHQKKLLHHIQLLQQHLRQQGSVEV

Ephrin type-A receptor 8 = target: T4, Ephrin type-A receptor 8 (Homo sapiens, UniProt P29322); assay: Displacement of ephrin-A1-Fc from EphA8 receptor Fc ectodomain (unknown origin) after 1 hr by ELISA
T4 sequence (P29322 whole entry): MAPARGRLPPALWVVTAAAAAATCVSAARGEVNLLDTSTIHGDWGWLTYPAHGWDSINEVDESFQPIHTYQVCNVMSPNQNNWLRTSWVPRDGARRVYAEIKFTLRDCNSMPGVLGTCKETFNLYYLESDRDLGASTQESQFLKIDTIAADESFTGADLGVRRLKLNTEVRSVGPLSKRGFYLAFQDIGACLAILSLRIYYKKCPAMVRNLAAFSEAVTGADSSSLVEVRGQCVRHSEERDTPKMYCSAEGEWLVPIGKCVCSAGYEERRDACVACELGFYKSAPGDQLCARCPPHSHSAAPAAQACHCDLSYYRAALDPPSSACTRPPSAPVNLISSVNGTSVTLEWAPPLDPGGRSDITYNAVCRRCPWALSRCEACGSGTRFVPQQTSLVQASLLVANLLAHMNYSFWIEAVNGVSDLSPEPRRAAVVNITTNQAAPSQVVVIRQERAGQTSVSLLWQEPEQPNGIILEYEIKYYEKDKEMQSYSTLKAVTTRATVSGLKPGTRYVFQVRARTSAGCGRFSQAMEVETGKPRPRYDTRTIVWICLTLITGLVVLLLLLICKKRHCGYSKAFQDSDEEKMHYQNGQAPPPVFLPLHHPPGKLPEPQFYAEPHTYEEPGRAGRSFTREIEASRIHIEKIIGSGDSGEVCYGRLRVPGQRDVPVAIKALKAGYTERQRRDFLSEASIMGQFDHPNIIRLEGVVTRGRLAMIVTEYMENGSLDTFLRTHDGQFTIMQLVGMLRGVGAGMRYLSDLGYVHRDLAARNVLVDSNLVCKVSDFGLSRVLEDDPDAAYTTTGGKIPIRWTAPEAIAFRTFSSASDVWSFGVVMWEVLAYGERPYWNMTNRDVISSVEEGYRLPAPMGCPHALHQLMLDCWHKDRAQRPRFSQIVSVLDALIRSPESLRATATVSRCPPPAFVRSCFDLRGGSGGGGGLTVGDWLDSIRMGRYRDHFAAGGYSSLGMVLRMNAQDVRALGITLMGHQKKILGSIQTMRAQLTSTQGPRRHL

Ephrin type-B receptor 1 = target: T5, Ephrin type-B receptor 1 (Homo sapiens, UniProt P54762); assay: Displacement of ephrin-B1-Fc from EphB1 receptor Fc ectodomain (unknown origin) after 1 hr by ELISA
T5 sequence (P54762 whole entry): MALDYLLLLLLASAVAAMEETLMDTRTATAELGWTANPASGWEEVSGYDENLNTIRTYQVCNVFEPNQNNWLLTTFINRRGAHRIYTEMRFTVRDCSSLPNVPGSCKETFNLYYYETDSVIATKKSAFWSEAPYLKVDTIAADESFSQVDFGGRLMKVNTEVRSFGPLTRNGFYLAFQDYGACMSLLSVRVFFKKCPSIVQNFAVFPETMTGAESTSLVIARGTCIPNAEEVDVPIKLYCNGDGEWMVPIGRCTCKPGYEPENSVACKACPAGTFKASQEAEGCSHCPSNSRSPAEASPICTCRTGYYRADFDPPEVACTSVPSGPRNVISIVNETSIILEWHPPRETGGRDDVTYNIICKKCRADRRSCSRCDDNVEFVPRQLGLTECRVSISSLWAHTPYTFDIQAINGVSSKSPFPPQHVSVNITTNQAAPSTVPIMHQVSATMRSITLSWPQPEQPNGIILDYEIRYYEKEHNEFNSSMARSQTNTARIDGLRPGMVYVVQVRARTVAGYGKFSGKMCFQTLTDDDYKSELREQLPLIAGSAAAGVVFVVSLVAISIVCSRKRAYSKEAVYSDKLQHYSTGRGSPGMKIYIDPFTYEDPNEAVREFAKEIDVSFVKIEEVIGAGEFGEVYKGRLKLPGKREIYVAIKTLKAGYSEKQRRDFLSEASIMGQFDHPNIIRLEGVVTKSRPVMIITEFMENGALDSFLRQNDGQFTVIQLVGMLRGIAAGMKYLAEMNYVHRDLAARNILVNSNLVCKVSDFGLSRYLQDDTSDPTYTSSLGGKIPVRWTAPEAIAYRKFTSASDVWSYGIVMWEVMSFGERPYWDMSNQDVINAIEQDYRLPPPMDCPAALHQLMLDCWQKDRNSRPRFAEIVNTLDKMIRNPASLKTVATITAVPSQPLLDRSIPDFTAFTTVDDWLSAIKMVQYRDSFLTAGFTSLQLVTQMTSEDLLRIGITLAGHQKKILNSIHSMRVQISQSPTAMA

Ephrin type-A receptor 6 = target: T6, Ephrin type-A receptor 6 (Homo sapiens, UniProt Q9UF33); assay: Displacement of ephrin-A1-Fc from EphA6 receptor Fc ectodomain (unknown origin) after 1 hr by ELISA
T6 sequence (Q9UF33 whole entry): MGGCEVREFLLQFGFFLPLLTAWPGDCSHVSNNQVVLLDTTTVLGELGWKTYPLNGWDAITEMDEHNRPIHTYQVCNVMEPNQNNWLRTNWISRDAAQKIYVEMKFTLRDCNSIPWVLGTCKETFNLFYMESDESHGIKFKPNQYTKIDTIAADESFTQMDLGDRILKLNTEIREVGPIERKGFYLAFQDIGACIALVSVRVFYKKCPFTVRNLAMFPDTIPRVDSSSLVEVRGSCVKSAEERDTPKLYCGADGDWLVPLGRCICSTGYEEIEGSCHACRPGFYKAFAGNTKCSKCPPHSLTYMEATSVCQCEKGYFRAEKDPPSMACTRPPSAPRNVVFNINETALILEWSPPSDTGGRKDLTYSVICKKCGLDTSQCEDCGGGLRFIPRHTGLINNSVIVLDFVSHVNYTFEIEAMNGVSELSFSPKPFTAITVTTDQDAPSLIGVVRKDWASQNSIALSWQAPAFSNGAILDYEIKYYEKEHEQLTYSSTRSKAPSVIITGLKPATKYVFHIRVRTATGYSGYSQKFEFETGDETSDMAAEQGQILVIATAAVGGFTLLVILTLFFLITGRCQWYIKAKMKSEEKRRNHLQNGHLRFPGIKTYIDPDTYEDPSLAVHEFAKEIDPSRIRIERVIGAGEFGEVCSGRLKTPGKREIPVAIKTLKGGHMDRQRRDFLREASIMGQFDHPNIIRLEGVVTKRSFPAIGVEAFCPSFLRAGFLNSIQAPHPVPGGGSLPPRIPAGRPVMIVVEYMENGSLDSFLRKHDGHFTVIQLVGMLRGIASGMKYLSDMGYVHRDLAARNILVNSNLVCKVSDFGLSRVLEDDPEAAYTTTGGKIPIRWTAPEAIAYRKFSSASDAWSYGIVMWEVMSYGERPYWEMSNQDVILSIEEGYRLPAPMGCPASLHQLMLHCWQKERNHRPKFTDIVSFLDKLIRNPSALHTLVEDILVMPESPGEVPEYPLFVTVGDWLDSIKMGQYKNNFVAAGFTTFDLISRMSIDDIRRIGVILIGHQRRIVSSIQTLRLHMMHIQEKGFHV

Ephrin type-A receptor 7 = Ephrin type-A receptor 7 (Homo sapiens, UniProt Q15375); assay: Displacement of ephrin-A1-Fc from EphA7 receptor Fc ectodomain (unknown origin) after 1 hr by ELISA
Sequence of Ephrin type-A receptor 7 (Q15375 whole entry, the tested form may be a part): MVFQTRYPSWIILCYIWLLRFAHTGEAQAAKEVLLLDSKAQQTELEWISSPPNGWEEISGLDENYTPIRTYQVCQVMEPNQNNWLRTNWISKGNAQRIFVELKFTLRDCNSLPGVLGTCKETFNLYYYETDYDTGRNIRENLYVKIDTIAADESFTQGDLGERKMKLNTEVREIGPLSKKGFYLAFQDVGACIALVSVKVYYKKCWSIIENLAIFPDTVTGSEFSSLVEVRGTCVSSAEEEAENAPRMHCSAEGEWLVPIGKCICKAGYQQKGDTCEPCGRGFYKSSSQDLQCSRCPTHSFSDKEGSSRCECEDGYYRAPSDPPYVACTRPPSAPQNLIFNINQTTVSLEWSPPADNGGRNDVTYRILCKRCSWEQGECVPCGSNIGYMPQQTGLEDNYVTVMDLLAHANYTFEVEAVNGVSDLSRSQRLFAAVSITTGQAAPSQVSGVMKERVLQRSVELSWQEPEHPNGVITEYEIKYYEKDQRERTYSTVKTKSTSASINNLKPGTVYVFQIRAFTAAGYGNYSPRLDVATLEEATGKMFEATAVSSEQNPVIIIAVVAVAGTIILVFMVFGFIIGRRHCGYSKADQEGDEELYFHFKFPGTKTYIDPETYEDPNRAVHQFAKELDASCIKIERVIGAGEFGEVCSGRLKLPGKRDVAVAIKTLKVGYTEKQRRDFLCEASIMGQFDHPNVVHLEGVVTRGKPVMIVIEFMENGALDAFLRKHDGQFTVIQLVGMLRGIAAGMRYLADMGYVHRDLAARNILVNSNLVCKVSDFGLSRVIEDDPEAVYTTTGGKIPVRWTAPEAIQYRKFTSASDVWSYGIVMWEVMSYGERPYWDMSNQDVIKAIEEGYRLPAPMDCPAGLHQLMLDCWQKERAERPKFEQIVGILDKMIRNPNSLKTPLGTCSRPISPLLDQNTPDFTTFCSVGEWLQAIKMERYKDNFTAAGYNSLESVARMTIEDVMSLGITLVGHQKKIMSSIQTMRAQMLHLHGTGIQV

Ephrin type-A receptor 5 = Ephrin type-A receptor 5 (Homo sapiens, UniProt P54756); assay: Displacement of ephrin-A1-Fc from EphA5 receptor Fc ectodomain (unknown origin) after 1 hr by ELISA
Sequence of Ephrin type-A receptor 5 (P54756 whole entry, the tested form may be a part): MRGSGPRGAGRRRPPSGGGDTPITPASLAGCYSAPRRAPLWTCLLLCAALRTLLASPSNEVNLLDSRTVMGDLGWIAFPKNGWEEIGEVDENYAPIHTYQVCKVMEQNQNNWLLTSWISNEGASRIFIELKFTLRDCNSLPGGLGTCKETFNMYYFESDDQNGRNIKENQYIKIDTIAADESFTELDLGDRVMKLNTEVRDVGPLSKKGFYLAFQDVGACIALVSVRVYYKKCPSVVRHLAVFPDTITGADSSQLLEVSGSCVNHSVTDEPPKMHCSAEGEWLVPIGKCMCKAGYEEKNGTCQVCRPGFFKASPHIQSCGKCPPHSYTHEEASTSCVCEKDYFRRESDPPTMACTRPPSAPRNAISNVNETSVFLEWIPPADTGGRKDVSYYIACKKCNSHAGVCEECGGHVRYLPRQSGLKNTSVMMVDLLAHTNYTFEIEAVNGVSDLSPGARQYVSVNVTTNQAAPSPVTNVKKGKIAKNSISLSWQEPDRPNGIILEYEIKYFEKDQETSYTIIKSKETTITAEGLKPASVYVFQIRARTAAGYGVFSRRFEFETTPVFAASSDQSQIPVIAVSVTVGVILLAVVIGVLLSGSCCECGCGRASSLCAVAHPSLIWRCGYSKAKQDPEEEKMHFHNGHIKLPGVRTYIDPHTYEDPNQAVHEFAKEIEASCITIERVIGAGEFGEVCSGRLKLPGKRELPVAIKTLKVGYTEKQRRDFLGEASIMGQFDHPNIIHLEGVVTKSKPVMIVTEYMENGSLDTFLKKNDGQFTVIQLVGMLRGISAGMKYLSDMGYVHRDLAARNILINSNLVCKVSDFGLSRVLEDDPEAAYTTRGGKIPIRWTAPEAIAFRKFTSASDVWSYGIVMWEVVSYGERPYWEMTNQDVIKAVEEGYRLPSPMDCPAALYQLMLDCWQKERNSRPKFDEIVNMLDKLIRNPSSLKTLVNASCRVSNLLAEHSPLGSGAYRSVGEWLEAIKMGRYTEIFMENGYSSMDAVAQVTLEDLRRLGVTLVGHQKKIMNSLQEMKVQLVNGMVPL

Ephrin type-A receptor 4 = Ephrin type-A receptor 4 (Homo sapiens, UniProt P54764); assay: Displacement of ephrin-A1-Fc from EphA4 receptor Fc ectodomain (unknown origin) after 1 hr by ELISA
Sequence of Ephrin type-A receptor 4 (P54764 whole entry, the tested form may be a part): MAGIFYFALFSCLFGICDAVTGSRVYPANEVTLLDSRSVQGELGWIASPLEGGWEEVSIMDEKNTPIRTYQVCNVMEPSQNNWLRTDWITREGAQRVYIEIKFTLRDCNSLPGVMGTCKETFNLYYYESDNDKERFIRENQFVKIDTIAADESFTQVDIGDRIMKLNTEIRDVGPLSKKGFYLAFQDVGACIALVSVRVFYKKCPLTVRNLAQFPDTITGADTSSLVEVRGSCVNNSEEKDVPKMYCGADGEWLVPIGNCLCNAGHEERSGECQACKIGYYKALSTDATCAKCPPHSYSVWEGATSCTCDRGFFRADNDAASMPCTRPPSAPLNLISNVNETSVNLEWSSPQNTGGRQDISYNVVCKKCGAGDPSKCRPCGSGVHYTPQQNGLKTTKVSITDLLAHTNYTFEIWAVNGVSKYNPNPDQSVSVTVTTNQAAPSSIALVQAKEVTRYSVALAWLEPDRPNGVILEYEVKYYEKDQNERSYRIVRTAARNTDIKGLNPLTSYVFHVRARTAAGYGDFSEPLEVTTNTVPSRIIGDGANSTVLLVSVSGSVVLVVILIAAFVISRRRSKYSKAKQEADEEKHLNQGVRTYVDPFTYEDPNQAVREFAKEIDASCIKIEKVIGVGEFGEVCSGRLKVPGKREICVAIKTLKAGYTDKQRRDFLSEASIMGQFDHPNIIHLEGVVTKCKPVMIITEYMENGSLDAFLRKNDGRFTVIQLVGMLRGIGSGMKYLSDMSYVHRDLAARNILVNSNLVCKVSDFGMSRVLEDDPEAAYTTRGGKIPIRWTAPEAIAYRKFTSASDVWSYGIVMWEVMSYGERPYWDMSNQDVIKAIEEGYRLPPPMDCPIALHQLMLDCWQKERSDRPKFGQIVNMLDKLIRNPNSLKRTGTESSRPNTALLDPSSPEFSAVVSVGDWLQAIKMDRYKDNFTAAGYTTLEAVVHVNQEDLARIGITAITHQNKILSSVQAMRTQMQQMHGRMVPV

Ephrin type-A receptor 2 [2] = target: T1, Ephrin type-A receptor 2; assay: Antagonist activity at EphA2 in human PC3 cells assessed as inhibition of ephrin-A1-Fc-stimulated EphA2 phosphorylation pretreated for 20 mins by sandwich ELISA; format: cell-based, PC-3

T1 sequence (P29317 whole entry): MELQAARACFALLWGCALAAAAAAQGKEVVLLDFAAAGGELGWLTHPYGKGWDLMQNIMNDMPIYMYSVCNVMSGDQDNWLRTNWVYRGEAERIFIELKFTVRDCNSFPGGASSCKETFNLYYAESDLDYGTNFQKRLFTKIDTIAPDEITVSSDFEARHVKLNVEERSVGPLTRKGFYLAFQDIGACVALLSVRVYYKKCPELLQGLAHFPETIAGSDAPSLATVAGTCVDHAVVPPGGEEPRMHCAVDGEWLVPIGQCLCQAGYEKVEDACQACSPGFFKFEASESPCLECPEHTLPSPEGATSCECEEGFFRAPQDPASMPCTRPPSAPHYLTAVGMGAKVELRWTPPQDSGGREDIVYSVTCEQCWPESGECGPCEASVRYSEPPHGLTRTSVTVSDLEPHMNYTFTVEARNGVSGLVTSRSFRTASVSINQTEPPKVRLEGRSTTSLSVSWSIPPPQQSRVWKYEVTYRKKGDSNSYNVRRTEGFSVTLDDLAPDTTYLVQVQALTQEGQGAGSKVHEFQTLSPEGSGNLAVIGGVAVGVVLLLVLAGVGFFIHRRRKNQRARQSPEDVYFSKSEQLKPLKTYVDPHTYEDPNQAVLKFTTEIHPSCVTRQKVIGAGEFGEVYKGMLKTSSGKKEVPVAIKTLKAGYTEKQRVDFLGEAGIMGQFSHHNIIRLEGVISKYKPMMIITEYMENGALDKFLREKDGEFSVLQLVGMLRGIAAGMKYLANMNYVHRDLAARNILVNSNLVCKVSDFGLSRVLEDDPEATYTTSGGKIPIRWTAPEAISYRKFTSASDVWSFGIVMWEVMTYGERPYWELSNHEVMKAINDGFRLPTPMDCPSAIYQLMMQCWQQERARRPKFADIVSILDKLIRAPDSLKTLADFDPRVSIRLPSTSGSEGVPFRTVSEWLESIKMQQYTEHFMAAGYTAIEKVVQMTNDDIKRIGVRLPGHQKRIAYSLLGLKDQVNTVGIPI

For `C[C@H](CCC(=O)N[C@H](CC(N)=O)C(=O)O)[C@H]1CC[C@H]2[C@@H]3CC[C@@H]4C[C@H](O)CC[C@]4(C)[C@H]3CC[C@]12C`, the IC50 (Ephrin type-A receptor 2 [1]) was over 316 µM.
With `C[C@H](CCC(=O)N[C@@H](Cc1c[nH]c2ccccc12)C(=O)O)[C@H]1CC[C@H]2[C@@H]3CC[C@@H]4C[C@H](O)CC[C@]4(C)[C@H]3CC[C@]12C` the Activity (PC-3) was “Non-toxic”, the IC50 (Ephrin type-B receptor 4) was 4.4 µM and the IC50 (Ephrin type-B receptor 6) was 5.8 µM. It also gave an IC50 (Ephrin type-A receptor 8) of 1.5 µM, an IC50 (Ephrin type-B receptor 1) of 3.8 µM and an IC50 (Ephrin type-A receptor 6) of 1.5 µM. For the same molecule, the IC50 (Ephrin type-A receptor 7) was 2.1 µM, the IC50 (Ephrin type-A receptor 5) was 2.4 µM and the IC50 (Ephrin type-A receptor 4) was 2.7 µM.
`C[C@H](CCC(=O)N[C@@H](CC(N)=O)C(=O)O)[C@H]1CC[C@H]2[C@@H]3CC[C@@H]4C[C@H](O)CC[C@]4(C)[C@H]3CC[C@]12C` showed an IC50 (Ephrin type-A receptor 2 [1]) of over 316 µM.
`CC(=O)CNC(=O)CC[C@@H](C)[C@H]1CC[C@H]2[C@@H]3CC[C@@H]4C[C@H](O)CC[C@]4(C)[C@H]3CC[C@]12C` was tested, and the IC50 (Ephrin type-A receptor 2 [1]) was over 316 µM.
`C[C@H](CCC(=O)N[C@H](CC(=O)O)C(=O)O)[C@H]1CC[C@H]2[C@@H]3CC[C@@H]4C[C@H](O)CC[C@]4(C)[C@H]3CC[C@]12C` gave an IC50 (Ephrin type-A receptor 2 [1]) of over 316 µM.
With `C[C@H](CCC(=O)NCC(=O)O)[C@H]1CC[C@H]2[C@@H]3CC[C@@H]4C[C@H](O)CC[C@]4(C)[C@H]3CC[C@]12C` [LITHOGLYCOCHOLATE] the IC50 (Ephrin type-A receptor 2 [2]) was 138 µM and the IC50 (Ephrin type-A receptor 2 [1]) was 49 µM.
With `C[C@H](CCC(=O)N[C@@H](CC(=O)O)C(=O)O)[C@H]1CC[C@H]2[C@@H]3CC[C@@H]4C[C@H](O)CC[C@]4(C)[C@H]3CC[C@]12C` the IC50 (Ephrin type-A receptor 2 [1]) was over 316 µM.
